From ChEMBL document CHEMBL1149391, “SAR and mode of action of novel non-nucleoside inhibitors of hepatitis C NS5b RNA polymerase” (J Med Chem, 2006)
pIC50: −log10 of the molar value. Activity calls are given as the source filed them. The calls are words filed in the database; no cut-off is given here.

Tests used:
ECV-304 = test: Cytotoxicity in E304 cells; format: functional, cell-based; settings: Homo sapiens
HFF = test: Cytotoxicity in HFF cells; format: functional, cell-based; settings: Homo sapiens
[1] = target: RNA-directed RNA polymerase (Hepacivirus hominis, UniProt O39930); test: Inhibitory activity against HCV delta 21 NS5b RNA polymerase
[2] = Plasma clearance in rat at 0.86 mg/kg, iv; format: ADME, organism-based; design: dose 0.86 mg/kg, route intravenous; settings: Sprague-Dawley
[3] = Volume of distribution in rat at 0.86 mg/kg, iv; format: ADME, organism-based; design: dose 0.86 mg/kg, route intravenous; settings: Sprague-Dawley, in vivo, read-out: Vdss
[4] = Half life in rat at 0.86 mg/kg, iv; format: ADME, organism-based; design: dose 0.86 mg/kg, route intravenous; settings: Sprague-Dawley, in vivo
[5] = Cmax in rat at 4.3 mg/kg, po; format: ADME, organism-based; design: dose 4.3 mg/kg, route oral; settings: Sprague-Dawley, in vivo
[6] = Tmax in rat at 4.3 mg/kg, po; format: ADME, organism-based; design: dose 4.3 mg/kg, route oral; settings: Sprague-Dawley, in vivo
[7] = AUC(0-8h) in rat at 4.3 mg/kg, po; format: ADME, organism-based; design: time < 8 hr, dose 4.3 mg/kg, route oral; settings: Sprague-Dawley, plasma
Genome polyprotein = Genome polyprotein (Bovine viral diarrhea virus (strain CP7) (BVDV) (Mucosal diseasevirus), UniProt Q96662); test: Inhibitory activity against BVDV NS5b RNA polymerase; design: species or system Bovine viral diarrhea virus 1
[8] = target: T1, Avian myoblastosis virus polyprotein II (Avian myeloblastosis virus, UniProt Q86831); test: Inhibitory activity against AMV Reverse transcriptase
T1 sequence (Q86831 whole entry): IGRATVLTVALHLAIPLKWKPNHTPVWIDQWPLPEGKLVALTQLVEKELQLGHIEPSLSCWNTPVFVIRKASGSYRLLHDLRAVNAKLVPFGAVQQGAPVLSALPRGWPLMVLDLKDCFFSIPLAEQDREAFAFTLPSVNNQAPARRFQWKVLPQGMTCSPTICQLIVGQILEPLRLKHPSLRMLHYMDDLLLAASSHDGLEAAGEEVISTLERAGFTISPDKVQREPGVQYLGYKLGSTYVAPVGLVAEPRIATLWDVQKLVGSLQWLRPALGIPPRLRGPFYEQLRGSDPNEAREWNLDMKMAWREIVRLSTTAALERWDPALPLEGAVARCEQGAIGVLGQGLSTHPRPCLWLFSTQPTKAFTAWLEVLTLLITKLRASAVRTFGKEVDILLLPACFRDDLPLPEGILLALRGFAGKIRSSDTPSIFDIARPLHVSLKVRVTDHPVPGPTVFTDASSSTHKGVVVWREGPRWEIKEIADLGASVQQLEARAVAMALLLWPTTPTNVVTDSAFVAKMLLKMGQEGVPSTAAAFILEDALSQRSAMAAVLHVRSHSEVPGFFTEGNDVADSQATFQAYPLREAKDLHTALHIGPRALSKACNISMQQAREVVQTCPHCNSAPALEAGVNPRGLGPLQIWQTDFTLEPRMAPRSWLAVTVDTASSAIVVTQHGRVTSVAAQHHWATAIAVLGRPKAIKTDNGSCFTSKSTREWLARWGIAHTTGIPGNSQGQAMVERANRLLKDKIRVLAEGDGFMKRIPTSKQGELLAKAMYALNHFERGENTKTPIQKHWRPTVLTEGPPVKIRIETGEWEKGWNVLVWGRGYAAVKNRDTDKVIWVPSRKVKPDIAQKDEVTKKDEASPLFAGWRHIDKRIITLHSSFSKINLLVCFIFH

[9] = target: Cathepsin B (Homo sapiens) (UniProt P07858); test: Inhibition of Cathepsin B
[10] = Inhibition of Calpain
Homo sapiens = species: Homo sapiens; test: Inhibition of human Caspase (caspase 1, caspase 3, caspase 6, caspase 7, caspase 8)
Tubulin (Homo sapiens) = Tubulin (Homo sapiens) (UniProt P68371+Q9H4B7+P0DPH7+P68366+Q13509+Q71U36+P04350+Q3ZCM7+P07437+P68363+Q9BQE3+Q6PEY2+Q13885+Q9BVA1+Q9BUF5); test: Effect on tubulin polymerization; format: functional
[11] = target: Aldo-keto reductase family 1 member B1 (Homo sapiens) (UniProt P15121); test: Inhibition of aldose reductase
[12] = Plasma clearance in rat at 0.16 mg/kg, iv; format: ADME, organism-based; design: dose 0.16 mg/kg, route intravenous; settings: Sprague-Dawley
[13] = Volume of distribution in rat at 0.16 mg/kg, iv; format: ADME, organism-based; design: dose 0.16 mg/kg, route intravenous; settings: Sprague-Dawley, in vivo, read-out: Vdss
[14] = Half life in rat at 0.16 mg/kg, iv; format: ADME, organism-based; design: dose 0.16 mg/kg, route intravenous; settings: Sprague-Dawley, in vivo
[15] = Cmax in rat at 4.1 mg/kg, po; format: ADME, organism-based; design: dose 4.1 mg/kg, route oral; settings: Sprague-Dawley, in vivo
[16] = Tmax in rat at 4.1 mg/kg, po; format: ADME, organism-based; design: dose 4.1 mg/kg, route oral; settings: Sprague-Dawley, in vivo
[17] = AUC(0-8h) in rat at 4.1 mg/kg, po; format: ADME, organism-based; design: time < 8 hr, dose 4.1 mg/kg, route oral; settings: Sprague-Dawley, plasma

Sequence of RNA-directed RNA polymerase (O39930 whole entry): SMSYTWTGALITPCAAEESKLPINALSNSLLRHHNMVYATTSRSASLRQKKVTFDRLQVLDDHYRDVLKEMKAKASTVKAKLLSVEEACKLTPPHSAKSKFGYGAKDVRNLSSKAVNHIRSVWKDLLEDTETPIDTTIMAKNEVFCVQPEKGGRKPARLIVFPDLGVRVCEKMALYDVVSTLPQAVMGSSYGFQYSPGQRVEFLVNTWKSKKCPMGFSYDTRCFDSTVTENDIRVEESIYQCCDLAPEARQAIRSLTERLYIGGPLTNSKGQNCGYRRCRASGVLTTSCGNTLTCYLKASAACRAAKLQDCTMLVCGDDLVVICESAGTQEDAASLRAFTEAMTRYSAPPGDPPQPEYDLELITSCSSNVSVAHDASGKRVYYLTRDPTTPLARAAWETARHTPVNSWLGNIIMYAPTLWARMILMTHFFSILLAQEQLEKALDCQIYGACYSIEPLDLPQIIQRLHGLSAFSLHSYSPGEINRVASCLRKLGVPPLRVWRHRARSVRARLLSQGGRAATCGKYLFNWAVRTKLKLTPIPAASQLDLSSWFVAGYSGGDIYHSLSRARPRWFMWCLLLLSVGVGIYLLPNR
Sequence of Genome polyprotein (Q96662 3189-3907 limits assumed): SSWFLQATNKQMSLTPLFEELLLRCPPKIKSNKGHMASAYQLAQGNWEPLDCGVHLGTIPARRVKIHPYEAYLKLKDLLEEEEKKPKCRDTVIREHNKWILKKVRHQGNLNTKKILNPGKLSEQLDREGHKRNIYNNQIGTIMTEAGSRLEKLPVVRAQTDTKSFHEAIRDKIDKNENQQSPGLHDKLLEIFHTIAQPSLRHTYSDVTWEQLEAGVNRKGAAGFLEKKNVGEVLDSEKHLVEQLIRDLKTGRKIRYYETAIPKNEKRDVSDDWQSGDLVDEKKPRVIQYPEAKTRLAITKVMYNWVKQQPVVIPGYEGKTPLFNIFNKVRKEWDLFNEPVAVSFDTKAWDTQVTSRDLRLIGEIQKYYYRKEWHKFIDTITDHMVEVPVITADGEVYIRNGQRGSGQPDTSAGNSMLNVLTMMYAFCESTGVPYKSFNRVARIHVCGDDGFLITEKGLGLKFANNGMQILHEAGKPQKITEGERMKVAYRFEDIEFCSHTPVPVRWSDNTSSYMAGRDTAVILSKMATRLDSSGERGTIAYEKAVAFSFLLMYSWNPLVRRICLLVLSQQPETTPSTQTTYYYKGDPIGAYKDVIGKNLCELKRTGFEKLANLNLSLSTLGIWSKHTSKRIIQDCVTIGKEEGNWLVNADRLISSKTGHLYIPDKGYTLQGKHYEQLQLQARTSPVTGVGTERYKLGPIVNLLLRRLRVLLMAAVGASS

Compound	pIC50 (ECV-304)	pIC50 (HFF)	pIC50 [1]	also measured
O=C1/C(=C/c2ccc(Br)c(Br)c2)SC(=S)N1NS(=O)(=O)c1ccccc1	< 4.30	< 4.00	6.70	–
O=C1/C(=C/c2cc(F)c(F)cc2F)SC(=S)N1NS(=O)(=O)c1ccccc1	< 4.30	< 4.00	6.70	–
Cc1cccc(/C=C2\SC(=S)N(NS(=O)(=O)c3ccccc3)C2=O)c1	< 4.30	< 4.00	4.60	–
O=C1/C(=C/c2ccccc2)SC(=S)N1NS(=O)(=O)c1ccccc1	< 4.30	< 4.00	4.52	–
N#Cc1ccc(/C=C2\SC(=S)N(N)C2=O)cc1	–	–	5.15	–
COc1ccc(/C=C2\SC(=S)N(NS(=O)(=O)c3ccccc3)C2=O)cc1	< 4.30	< 4.00	5.30	–
O=C1/C(=C/c2ccc(-c3cc(C(F)(F)F)ccc3Cl)o2)SC(=S)N1NS(=O)(=O)c1ccccc1	–	–	7.00	–
O=C1/C(=C/c2ccc(F)cc2)SC(=S)N1NS(=O)(=O)c1ccccc1	< 4.30	< 4.00	6.00	–
Cc1ccc(/C=C2\SC(=S)N(N)C2=O)cc1	–	–	< 4.52	–
NN1C(=O)/C(=C/c2ccc(Cl)cc2)SC1=S	–	–	4.80	–
O=C1/C(=C/c2ccc3c(c2)OCO3)SC(=S)N1NS(=O)(=O)c1ccccc1	< 4.30	< 4.00	4.82	–
CN1C(=O)/C(=C/c2ccc([N+](=O)[O-])cc2)SC1=S	–	–	4.52	–
O=C1/C(=C/c2cccnc2)SC(=S)N1NS(=O)(=O)c1ccccc1	< 4.30	< 4.00	4.82	–
CS(=O)(=O)NN1C(=O)/C(=C/c2ccc(Cl)c(Cl)c2)SC1=S	–	–	5.70	–
COc1cccc(/C=C2\SC(=S)N(NS(=O)(=O)c3ccccc3)C2=O)c1	< 4.30	< 4.00	5.30	–
O=C1/C(=C/c2ccc3ccccc3c2)SC(=S)N1NS(=O)(=O)c1ccccc1	< 4.30	< 4.00	5.52	–
O=C1/C(=C/c2ccc(Cl)c(F)c2)SC(=S)N1NS(=O)(=O)c1ccccc1	< 4.30	< 4.00	6.00	–
O=C1NC(=S)S/C1=C\c1ccc([N+](=O)[O-])cc1	–	–	4.66	–
O=C1/C(=C/c2ccc(Cl)c(Cl)c2)SC(=S)N1NS(=O)(=O)c1cccs1	< 4.30	< 4.00	6.70	clearance [2]: 2.83 mL/min/kg; Vd [3]: 0.7 L/kg; half-life [4]: 198 min; Cmax [5]: 3970 ng/mL; Tmax [6]: 1.7 h; AUC(0-t) at 8 h [7]: 25600 ng·h/mL
NN1C(=O)/C(=C/c2ccc(F)cc2)SC1=S	–	–	5.15	–
CC(/C=C1\SC(=S)N(NS(=O)(=O)c2ccccc2)C1=O)=C\c1ccccc1	< 4.30	< 4.00	6.70	–
NN1C(=O)/C(=C/c2ccc([N+](=O)[O-])cc2)SC1=S	–	–	6.00	–
O=C1/C(=C/c2ccc(Cl)cc2)SC(=S)N1NS(=O)(=O)c1ccccc1	–	–	5.82	pIC50 (Genome polyprotein): < 4.52; pIC50 [8]: < 4.52
O=C1C(Cc2ccc(Cl)c(Cl)c2)SC(=S)N1NS(=O)(=O)c1ccccc1 (stereo unspecified)	–	–	4.96	–

Compound	pIC50 (ECV-304)	pIC50 (HFF)	pIC50 [1]	also measured
O=C1/C(=C/c2ccc(C(F)(F)F)cc2)SC(=S)N1NS(=O)(=O)c1ccccc1	< 4.30	< 4.00	6.00	–
O=S(=O)(NN1C(=S)SC(Cc2ccc(Cl)c(Cl)c2)C1O)c1ccccc1 (stereo unspecified)	–	–	4.57	–
CN(C)c1ccc(/C=C2\SC(=S)N(N)C2=O)cc1	–	–	< 4.52	–
CN1C(=O)/C(=C/c2ccc(Cl)cc2)SC1=S	–	–	< 4.52	–
O=C1/C(=C/c2cc(F)c(F)c(F)c2)SC(=S)N1NS(=O)(=O)c1ccccc1	< 4.30	< 4.00	6.00	–
CCN1C(=O)/C(=C/c2ccc(Cl)cc2)SC1=S	–	–	< 4.52	–
O=C1/C(=C/c2ccccc2F)SC(=S)N1NS(=O)(=O)c1ccccc1	< 4.30	< 4.00	5.19	–
O=C1/C(=C/c2ccc(F)c(F)c2F)SC(=S)N1NS(=O)(=O)c1ccccc1	< 4.30	< 4.00	5.72	–
N#Cc1ccc(/C=C2\SC(=S)N(NS(=O)(=O)c3ccccc3)C2=O)cc1	< 4.30	< 4.00	6.05	–
O=C1/C(=C/c2cc(F)ccc2F)SC(=S)N1NS(=O)(=O)c1ccccc1	< 4.30	< 4.00	5.77	–
Cc1ccc(/C=C2\SC(=S)N(NS(=O)(=O)c3ccccc3)C2=O)cc1	< 4.30	< 4.00	5.00	–
O=C1/C(=C/c2ccc(F)cc2F)SC(=S)N1NS(=O)(=O)c1ccccc1	< 4.30	< 4.00	5.52	–
Cc1ccc(/C=C2\SC(=S)N(NS(=O)(=O)c3ccccc3)C2=O)cc1C	< 4.30	< 4.00	5.10	–
C/C(=C1/SC(=S)N(NS(=O)(=O)c2ccccc2)C1=O)c1ccc(Cl)c(Cl)c1	–	–	6.22	–
COc1ccc(/C=C2\SC(=S)N(N)C2=O)cc1	–	–	< 4.52	–
O=C(NN1C(=O)/C(=C/c2ccc(Cl)cc2)SC1=S)c1ccccc1	–	–	< 4.52	–
O=C1/C(=C/c2ccc(Br)cc2)SC(=S)N1NS(=O)(=O)c1ccccc1	< 4.30	< 4.00	6.15	–
O=C1/C(=C/c2ccc(Cl)cc2)SC(=S)N1Cc1ccccc1	–	–	< 4.52	–
CCCCS(=O)(=O)NN1C(=O)/C(=C/c2ccc(Cl)c(Cl)c2)SC1=S	–	–	6.15	–
O=C1/C(=C/c2ccc(Cl)c(Cl)c2)SC(=S)N1NS(=O)(=O)c1ccccc1	< 4.30	< 4.00	6.70	Activity [9]: inactive; Activity [10]: inactive; Activity (Homo sapiens): inactive; Activity (Tubulin (Homo sapiens)): inactive; Activity [11]: inactive; clearance [12]: 0.125 mL/min/kg; Vd [13]: 0.09 L/kg; half-life [14]: 552 min; Cmax [15]: 3740 ng/mL; Tmax [16]: 3.3 h; AUC(0-t) at 8 h [17]: 25500 ng·h/mL
O=C1/C(=C/c2ccc([N+](=O)[O-])cc2)SC(=S)N1NS(=O)(=O)c1ccccc1	< 4.30	< 4.00	5.70	–
NN1C(=O)/C(=C/c2ccccc2)SC1=S	–	–	< 4.52	–
O=C1NC(=S)S/C1=C\c1ccc(Cl)cc1	–	–	< 4.52	–
